Converted amounts (≈) assume the structure as drawn. Where two headings read alike, the source gives them in different places.
Assays:
Type in all cases: cell-based
[1] = tested on: P. aeruginosa ATCC27853; assay: Bacterial growth minimal inhibitory concentration (broth microdilution, CLSI M7-A7); details: quinolone-sensitive strain; for MIC: Pseudomonas aeruginosa, ATCC27853, cation-adjusted Mueller Hinton Broth; for MIC for P. aeruginosa ATCC27853: cation-adjusted Mueller Hinton Broth
Method: (§1) Minimal Inhibitory Concentrations (MICs; mg/L) were determined in cation-adjusted MuellerHinton Broth by a microdilution method following the description given in “Methods for Dilution Antimicrobial Susceptibility Tests for Bacteria that grow Aerobically”, Approved standard, 7th ed., Clinical and Laboratory Standards Institute (CLSI) Document M7-A7, Wayne, Pa., USA (2006).
(§2) All Example compounds were tested against several Gram-positive and Gram-negative bacteria. […] K pneumoniae A-651 is a multiply-resistant strain (in particular quinolone-resistant), while E. coli ATCC25922 and P. aeruginosa ATCC27853 are quinolone-sensitive strains.

[2] = tested on: K. Pneumoniae A-651; assay: as above; details: cation-adjusted Mueller Hinton Broth, multiply-resistant (quinolone-resistant) strain; for MIC: Klebsiella pneumoniae
Method: as §1, §2

[3] = tested on: E. coli ATCC25922; assay: as above; details: quinolone-sensitive strain; for MIC: Escherichia coli, ATCC25922, cation-adjusted Mueller Hinton Broth; for MIC for E. coli ATCC25922: cation-adjusted Mueller Hinton Broth
Method: as §1, §2

[4] = tested on: wild-type E. coli A-1261; assay: MIC with or without alkaline phosphatase or esterase (prodrug activation); details: Escherichia coli
Method: Minimal Inhibitory Concentrations (MICs; mg/L) were determined in cation-adjusted MuellerHinton Broth by a microdilution method following the description given in “Methods for Dilution Antimicrobial Susceptibility Tests for Bacteria that grow Aerobically”, Approved standard, 7th ed., Clinical and Laboratory Standards Institute (CLSI) Document M7-A7, Wayne, Pa., USA (2006). The compounds of Examples 5 and 12 were tested against wild-type E. coli A-1261 in the absence of alkaline phosphatase or esterase, in the presence of an alkaline phosphatase, and in the presence of an esterase. The corresponding antibacterial test results are given in Table 2 hereafter (MICs in mg/L).

[5] = alkaline phosphatase 2 i.U./mL, read-out: MIC for E. coli A-1261 In the presence of an alkaline phosphatase (2 i.U./mL)
[6] = esterase 10 i.U./mL, read-out: MIC for E. coli A-1261 In the presence of an esterase (10 i.U./mL)
[7] = no alkaline phosphatase or esterase, read-out: MIC for E. coli A-1261 In the absence of alkaline phosphatase or esterase

Row | Compound | MIC [1] [µg/mL] | MIC [2] [µg/mL] | MIC [3] [µg/mL] | MIC for P. aeruginosa ATCC27853 [1] [µg/mL] | MIC for K. Pneumoniae A-651 [2] [µg/mL] | MIC for E. coli ATCC25922 [3] [µg/mL] | MIC [4, 5] [µg/mL] | MIC [4, 6] [µg/mL] | MIC [4, 7] [µg/mL]
1 | COc1ccc(-c2ccc3c(c2)oc(=O)n3CCC(C)(C(=O)NO)S(C)(=O)=O)c(F)c1 (racemic) [RE1, (2RS)-4-(6-(2-fluoro-4-methoxyphenyl)-2-oxobenzo[d]oxazol-3(2H)-yl)-N-hydroxy-2-methyl-2-(methylsulfonyl)butanamide] | > 8 | 1 (≈ 2.21 µM) | 2 (≈ 4.42 µM) |  |  |  |  |  | 
2 | CC(CCn1c(=O)oc2cc(C#CC#CC3(O)COC3)ccc21)(C(=O)NO)S(C)(=O)=O (racemic) [RE2, (2RS)—N-hydroxy-4-(6-((3-hydroxyoxetan-3-yl)buta-1,3-diyn-1-yl)-2-oxobenzo[d]oxazol-3(2H)-yl)-2-methyl-2-(methylsulfonyl)butanamide] | > 8 | 8 (≈ 17.8 µM) | 4 (≈ 8.92 µM) |  |  |  |  |  | 
3 | C[C@@](CCn1c(=O)oc2cc(C#Cc3ccc(CO)cc3)ccc21)(C(=O)NO)S(C)(=O)=O [Example 1] |  |  |  | 4 | 0.5 | 0.25 |  |  | 
4 | C[C@@](CCn1c(=O)oc2cc(C#CC#CC3(CO)CC3)ccc21)(C(=O)NO)S(C)(=O)=O [Example 2, (2R)—N-hydroxy-4-(6-((1-(hydroxymethyl)cyclopropyl)buta4,3-diyn-1-yl)-2-oxobenzo[d]oxazol-3(2H)-yl)-2-methyl-2-(methylsulfonyl)butanamide] |  |  |  | 1 | 1 | 0.25 |  |  | 
5 | C[C@@](CCn1c(=O)oc2cc(C#Cc3ccc(CN4CCOCC4)cc3)ccc21)(C(=O)NO)S(C)(=O)=O [Example 3] |  |  |  | >8 | 2 | 2 |  |  | 
6 | CNC1(C#CC#Cc2ccc3c(c2)oc(=O)n3CC[C@](C)(C(=O)NO)S(C)(=O)=O)CC1 [Example 4, (2R)—N-hydroxy-2-methyl-4-(6-((1-(methylamino)cyclopropyl)buta-1,3-diyn-1-yl)-2-oxobenzo[d]oxazol-3(2H)-yl)-2-(methylsulfonyl)butanamide] | 1 (≈ 2.24 µM) | 0.25 (≈ 0.561 µM) | 0.25 (≈ 0.561 µM) |  |  |  |  |  | 
7 | C[C@@](CCn1c(=O)oc2cc(C#CC#C[C@H]3C[C@@H]3CO)ccc21)(C(=O)NO)S(C)(=O)=O [Example 5, (2R)—N-hydroxy-4-(6-(((1S,2S)-2-(hydroxymethyl)cyclopropyl)buta-1,3-diyn-1-yl)-2-oxobenzo[d]oxazol-3 (2H)-yl)-2-methyl-2-(methylsulfonyl)butanamide] | 0.5 (≈ 1.12 µM) | 0.125 (≈ 0.28 µM) | 0.063 (≈ 0.141 µM) |  |  |  | 0.063 | 0.063 | 0.063 (≈ 0.141 µM)
8 | C[C@@](CCn1c(=O)oc2cc(C#CC#C[C@H]3C[C@]3(F)CO)ccc21)(C(=O)NO)S(C)(=O)=O [Example 6, (2R)-4-(6-(((1R,2R)-2-fluoro-2-(hydroxymethyl)cyclopropyl)buta-1,3-diyn-1-yl)-2-oxobenzo[d]oxazol-3(2H)-yl)-N-hydroxy-2-methyl-2-(methylsulfonyl)butanamide] | 0.5 (≈ 1.08 µM) | 0.25 (≈ 0.538 µM) | 0.125 (≈ 0.269 µM) |  |  |  |  |  | 
9 | C[C@@](CCn1c(=O)oc2cc(C#CC#CCOC(=O)N3CC(O)C3)ccc21)(C(=O)NO)S(C)(=O)=O [Example 7, (3R)-5-(3-(4-(hydroxyamino)-3-methyl-3-(methylsulfonyl)-4-oxobutyl)-2-oxo-2,3-dihydrobenzo[d]oxazol-6-yl)penta-2,4-diyn-1-yl 3-hydroxyazetidine-1-carboxylate] | 1 (≈ 1.98 µM) | 1 (≈ 1.98 µM) | 0.5 (≈ 0.989 µM) |  |  |  |  |  | 
10 | C[C@@](CCn1c(=O)oc2cc(C#CC#CC3(N)CC3)ccc21)(C(=O)NO)S(C)(=O)=O [Example 8, (2R)-4-(6-((1-aminocyclopropyl)buta-1,3-diyn-1-yl)-2-oxobenzo[d]oxazol-3(2H)-yl)-N-hydroxy-2-methyl-2-(methylsulfonyl)butanamide] | 1 (≈ 2.32 µM) | 0.25 (≈ 0.579 µM) | 0.125 (≈ 0.29 µM) |  |  |  |  |  | 
11 | CN1CC(C#CC#Cc2ccc3c(c2)oc(=O)n3CC[C@](C)(C(=O)NO)S(C)(=O)=O)C1 [Example 9, (2R)—N-hydroxy-2-methyl-4-(6-((1-methylazetidin-3-yl)buta-1,3-diyn-1-yl)-2-oxobenzo[d]oxazol-3(2H)-yl)-2-(methylsulfonyl)butanamide] | 1 (≈ 2.24 µM) | 0.5 (≈ 1.12 µM) | 1 (≈ 2.24 µM) |  |  |  |  |  | 
12 | CN1CC(C#CC#Cc2ccc3c(c2)sc(=O)n3CC[C@](C)(C(=O)NO)S(C)(=O)=O)C1 [Example 10, (2R)—N-hydroxy-2-methyl-4-(6-((1-methylazetidin-3-yl)buta-1,3-diyn-1-yl)-2-oxobenzo[d]thiazol-3(2H)-yl)-2-(methylsulfonyl)butanamide] | 2 (≈ 4.33 µM) | 1 (≈ 2.17 µM) | 0.5 (≈ 1.08 µM) |  |  |  |  |  | 
13 | C[C@@](CCn1c(=O)sc2cc(C#CC#C[C@H]3C[C@]3(F)CO)ccc21)(C(=O)NO)S(C)(=O)=O [Example 11, (2R)-4-(6-(((1R,2R)-2-fluoro-2-(hydroxymethyl)cyclopropyl)buta-1,3-diyn-1-yl)-2-oxobenzo[d]thiazol-3(2H)-yl)-N-hydroxy-2-methyl-2-(methylsulfonyl)butanamide] | 1 (≈ 2.08 µM) | 0.25 (≈ 0.52 µM) | 0.063 (≈ 0.131 µM) |  |  |  |  |  | 
14 | C[C@@](CCn1c(=O)oc2cc(C#CC#C[C@H]3C[C@@H]3COP(=O)(O)O)ccc21)(C(=O)NO)S(C)(=O)=O [Example 12, ((1S,2S)-2-((3-((3R)-4-(hydroxyamino)-3-methyl-3-(methylsulfonyl)-4-oxobutyl)-2-oxo-2,3-dihydrobenzo[d]oxazol-6-yl)buta-1,3-diyn-1-yl)cyclopropyl)methyl dihydrogen phosphate] |  |  |  |  |  |  | 0.125 | > 8 | > 8
15 | C[C@@](CCn1c(=O)sc2cc(C#Cc3ccc(CO)cc3)ccc21)(C(=O)NO)S(C)(=O)=O [Example 13] |  |  |  | 8 | 0.5 | 0.125 |  |  | 

Reference: patent publication US20180251434A1, “ANTIBACTERIAL HETEROCYCLIC DERIVATIVES” (priority 2015, published 2018)
